Measured values reported in patent US9315458B2, “Nitrogen-containing heterocyclic compound” (Takeda Pharmaceutical Company Limited, priority 2014, dated 2016).

Target: T1, human M1 receptor (hCHRM1) (Homo sapiens, UniProt P11229)
T1 construct: expressed in transfected cells
T1 sequence (P11229 1-460): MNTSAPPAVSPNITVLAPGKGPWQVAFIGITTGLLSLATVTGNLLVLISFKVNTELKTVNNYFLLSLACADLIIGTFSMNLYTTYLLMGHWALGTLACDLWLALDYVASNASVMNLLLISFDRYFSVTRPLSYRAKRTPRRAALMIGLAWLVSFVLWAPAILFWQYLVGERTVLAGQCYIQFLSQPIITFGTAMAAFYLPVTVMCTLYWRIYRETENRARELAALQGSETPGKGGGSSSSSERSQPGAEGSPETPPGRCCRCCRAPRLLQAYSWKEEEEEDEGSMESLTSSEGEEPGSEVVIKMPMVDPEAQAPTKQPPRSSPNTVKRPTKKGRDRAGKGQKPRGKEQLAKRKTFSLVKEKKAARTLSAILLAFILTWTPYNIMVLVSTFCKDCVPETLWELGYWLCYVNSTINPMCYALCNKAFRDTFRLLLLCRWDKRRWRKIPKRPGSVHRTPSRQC
Experiment: Measurement of M1 receptor positive allosteric modulator (M1PAM) activity, calcium fluorescence (FLIPRtetra) with acetylcholine at EC20
Assay type: cell-based
Conditions: for activity (%) at 10 μM: 10 μM test compound, 100% = acetylcholine 1 μM, 0% = DMSO, acetylcholine at EC20; for EC50: inflection point of concentration-dependent curve, CHO-K1 cells expressing hCHRM1, acetylcholine at EC20 (final 0.6-0.8 nM), read-out: IP value
Procedure, shortened: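 CHO-K1 cells stably expressing hCHRM1, Fluo-4 AM loaded; compound added with acetylcholine at EC20 (final 0.6-0.8 nM), fluorescence read 1 min. Activity normalised to 1 μM acetylcholine (100%) and DMSO (0%); IP values taken as inflection point of the concentration-response curve.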

Structure (SMILES)	activity (%) at 10 μM	EC50
CNC(=O)c1ccc(Cc2cc3c(c(C)c2C)CN([C@H]2COCC[C@@H]2O)C3=O)cc1F [Example 19, 1,5-anhydro-2,4-dideoxy-2-(6-(3-fluoro-4-(methylcarbamoyl)benzyl)-4,5-dimethyl-1-oxo-1,3-dihydro-2H-isoindol-2-yl)-L-threo-pentitol]	101%	2 nM
Cc1cc2c(cc1Cc1ccc(-n3cccn3)cc1)C(=O)N([C@H]1COCC[C@@H]1O)C2 [Example 21, 1,5-anhydro-2,4-dideoxy-2-(5-methyl-1-oxo-6-(4-(1H-pyrazol-1-yl)benzyl)-1,3-dihydro-2H-isoindol-2-yl)-L-threo-pentitol]	106%	6.2 nM
Cc1c(Cc2ccc(OC(F)F)cc2)cc2c(c1C)CN([C@H]1COCC[C@@H]1O)C2=O [Example 22, 1,5-anhydro-2,4-dideoxy-2-(6-(4-(difluoromethoxy)benzyl)-4,5-dimethyl-1-oxo-1,3-dihydro-2H-isoindol-2-yl)-L-threo-pentitol]	110%	32 nM
COc1cc(Cc2cc3c(c(C)c2C)CN([C@H]2COCC[C@@H]2O)C3=O)ccc1F [Example 23, 1,5-anhydro-2,4-dideoxy-2-(6-(4-fluoro-3-methoxybenzyl)-4,5-dimethyl-1-oxo-1,3-dihydro-2H-isoindol-2-yl)-L-threo-pentitol]	100%	46 nM
COc1ccc(Cc2cc3c(c(Cl)c2C)CN([C@H]2COCC[C@@H]2O)C3=O)cc1 [Example 24, 1,5-anhydro-2-(4-chloro-6-(4-methoxybenzyl)-5-methyl-1-oxo-1,3-dihydro-2H-isoindol-2-yl)-2,4-dideoxy-L-threo-pentitol]	88%	4.3 nM
Cc1c(Cc2ccc(C#N)c(F)c2)cc2c(c1C)CN([C@H]1COCC[C@@H]1O)C2=O [Example 26, 1,5-anhydro-2-(6-(4-cyano-3-fluorobenzyl)-4,5-dimethyl-1-oxo-1,3-dihydro-2H-isoindol-2-yl)-2,4-dideoxy-L-threo-pentitol]	99%	9.2 nM
Cc1cc2c(cc1Cc1ccc(-n3cccn3)cc1)C(=O)N(CC1CCCO1)C2 (centres unmarked) [Example 36, 5-methyl-6-(4-(1H-pyrazol-1-yl)benzyl)-2-(tetrahydrofuran-2-ylmethyl)isoindolin-1-one]	107%	83 nM
Cc1cc2c(cc1Cc1ccc(-c3cn(C)nn3)cc1)C(=O)N(CC1CCCO1)C2 (centres unmarked) [Example 49, 5-methyl-6-(4-(1-methyl-1H-1,2,3-triazol-4-yl)benzyl)-2-(tetrahydrofuran-2-ylmethyl)isoindolin-1-one]	97%	31 nM
Cc1cc2c(cc1Cc1ccc(-c3cn(C)nn3)cc1F)C(=O)N(CC1CCCO1)C2 (centres unmarked) [Example 54, 6-(2-fluoro-4-(1-methyl-1H-1,2,3-triazol-4-yl)benzyl)-5-methyl-2-(tetrahydrofuran-2-ylmethyl)isoindolin-1-one]	92%	37 nM
CCc1cc2c(cc1Cc1ccc(-n3cccn3)cc1)C(=O)N(CC1CCCO1)C2 (centres unmarked) [Example 58, 5-ethyl-6-(4-(1H-pyrazol-1-yl)benzyl)-2-(tetrahydrofuran-2-ylmethyl)isoindolin-1-one]	100%	95 nM
Cn1cc(-c2ccc(Cc3cc4c(cc3Cl)CN(CC3CCCO3)C4=O)cc2)nn1 (centres unmarked) [Example 60, 5-chloro-6-(4-(1-methyl-1H-1,2,3-triazol-4-yl)benzyl)-2-(tetrahydrofuran-2-ylmethyl)isoindolin-1-one]	94%	72 nM
Cn1cc(-c2ccc(Cc3cc4c(cc3C3CC3)CN(CC3CCCO3)C4=O)cc2)nn1 (centres unmarked) [Example 61, 5-cyclopropyl-6-(4-(1-methyl-1H-1,2,3-triazol-4-yl)benzyl)-2-(tetrahydrofuran-2-ylmethyl)isoindolin-1-one]	97%	35 nM
O=C1c2cc(Cc3ccc(-n4cccn4)cc3)c(C3CC3)cc2CN1CC1CCCO1 (centres unmarked) [Example 62, 5-cyclopropyl-6-(4-(1H-pyrazol-1-yl)benzyl)-2-(tetrahydrofuran-2-ylmethyl)isoindolin-1-one]	103%	95 nM
Cc1cc2c(cc1Cc1ccc(-c3cnn(C)c3)cc1)C(=O)N(CC1CCCO1)C2 (centres unmarked) [Example 68, 5-methyl-6-(4-(1-methyl-1H-pyrazol-4-yl)benzyl)-2-(tetrahydrofuran-2-ylmethyl)isoindolin-1-one]	95%	96 nM
Cc1c(Cc2ccc(-n3cccn3)cc2)cc2c(c1C)CN(CC1CCCO1)C2=O (centres unmarked) [Example 80, 4,5-dimethyl-6-(4-(1H-pyrazol-1-yl)benzyl)-2-(tetrahydrofuran-2-ylmethyl)isoindolin-1-one]	90%	14 nM
Cc1c(Cc2ccc(-c3cnn(C)c3)cc2)cc2c(c1C)CN(CC1CCCO1)C2=O (centres unmarked) [Example 84, 4,5-dimethyl-6-(4-(1-methyl-1H-pyrazol-4-yl)benzyl)-2-(tetrahydrofuran-2-ylmethyl)isoindolin-1-one]	104%	52 nM
Cc1c(Cc2ccc(-c3ccn(C)n3)cc2)cc2c(c1C)CN(CC1CCCO1)C2=O (centres unmarked) [Example 85, 4,5-dimethyl-6-(4-(1-methyl-1H-pyrazol-3-yl)benzyl)-2-(tetrahydrofuran-2-ylmethyl)isoindolin-1-one]	105%	41 nM

Second part, the molecule after the results:

activity (%) at 10 μM	EC50	Structure (SMILES)
94%	6 nM	Cc1c(Cc2ccc(-c3cn(C)nn3)cc2F)cc2c(c1C)CN(CC1CCCO1)C2=O (centres unmarked) [Example 103, 6-(2-fluoro-4-(1-methyl-1H-1,2,3-triazol-4-yl)benzyl)-4,5-dimethyl-2-(tetrahydrofuran-2-ylmethyl)isoindolin-1-one]
101%	54 nM	Cc1cc2c(cc1Cc1ccc(-n3cccn3)cc1)C(=O)N(CC(C)(C)O)C2 [Example 104, 2-(2-hydroxy-2-methylpropyl)-5-methyl-6-(4-(1H-pyrazol-1-yl)benzyl)isoindolin-1-one]
92%	10 nM	CCc1cc2c(cc1Cc1ccc(-c3cn(C)nn3)cc1)C(=O)N(CC1CCCO1)C2 (centres unmarked) [Example 105, 5-ethyl-6-(4-(1-methyl-1H-1,2,3-triazol-4-yl)benzyl)-2-(tetrahydrofuran-2-ylmethyl)isoindolin-1-one]
102%	14 nM	Cc1c(Cc2ccc(-n3cccn3)cc2)cc2c(c1F)CN([C@H]1CCC[C@@H]1O)C2=O [Example 107, 4-fluoro-2-((1S,2S)-2-hydroxycyclopentyl)-5-methyl-6-(4-(1H-pyrazol-1-yl)benzyl)isoindolin-1-one]
100%	23 nM	Cc1c(Cc2ccc(-c3ccn(C)n3)cc2)cc2c(c1C)CN(C[C@@H]1CCCO1)C2=O [Example 109, 4,5-dimethyl-6-(4-(1-methyl-1H-pyrazol-3-yl)benzyl)-2-((2S)-tetrahydrofuran-2-ylmethyl)isoindolin-1-one]
77%	24 nM	Cc1c(Cc2ccc(-c3cn(C)nn3)cc2)cc2c(c1C)CN(C[C@H]1CCCO1)C2=O [Example 110, 4,5-dimethyl-6-(4-(1-methyl-1H-1,2,3-triazol-4-yl)benzyl)-2-((2R)-tetrahydrofuran-2-ylmethyl)isoindolin-1-one]
103%	26 nM	Cc1c(Cc2ccc(-c3ccn(C)n3)cc2)cc2c(c1F)CN([C@H]1CCC[C@@H]1O)C2=O [Example 111, 4-fluoro-2-((1S,2S)-2-hydroxycyclopentyl)-5-methyl-6-(4-(1-methyl-1H-pyrazol-3-yl)benzyl)isoindolin-1-one]
96%	15 nM	Cc1c(Cc2ccc(-c3ccn(C)n3)cc2)cc2c(c1C)CN(CC(C)(C)O)C2=O [Example 114, 2-(2-hydroxy-2-methylpropyl)-4,5-dimethyl-6-(4-(1-methyl-1H-pyrazol-3-yl)benzyl)isoindolin-1-one]
92%	25 nM	Cc1c(Cc2ccc(-n3cccn3)cc2F)cc2c(c1C)CN(C[C@@H]1CCCO1)C2=O [Example 115, 6-(2-fluoro-4-(1H-pyrazol-1-yl)benzyl)-4,5-dimethyl-2-((2S)-tetrahydrofuran-2-ylmethyl)isoindolin-2-one]
111%	6.1 nM	CCc1cc2c(cc1Cc1ccc(-c3ccn(C)n3)cc1)C(=O)N([C@H]1COCC[C@@H]1O)C2 [Example 116, 5-ethyl-2-[(3S,4S)-4-hydroxytetrahydro-2H-pyran-3-yl]-6-[4-(1-methyl-1H-pyrazol-3-yl)benzyl]-2,3-dihydro-1H-isoindol-1-one]
106%	25 nM	CCc1cc2c(cc1Cc1ccc(-c3cn(C)nn3)cc1)C(=O)N(CC(C)(C)O)C2 [Example 118, 5-ethyl-2-(2-hydroxy-2-methylpropyl)-6-(4-(1-methyl-1H-1,2,3-triazol-4-yl)benzyl)isoindolin-1-one]
